Publication PMC9745799, “Polymyxin Stereochemistry and Its Role in Antibacterial Activity and Outer Membrane Disruption” (ACS Infectious Diseases, 2022)
Converted amounts (≈) assume the structure as drawn. “And” between values parts separate entries of the source, which are not always exact repeats. Equal values may be shown once. Read-outs that look alike come from different tables or passages of the source. Positions of bridges follow the written chain, without caps; N, C: chain ends. Non-standard residues stand in square brackets, D forms with d. Residues, ends and D or L forms follow the SMILES beside them. *: point of attachment. dDab = NCC[C@@H](N)C(=O)O; Heptanoyl = CCCCCCC(=O)*; Dab = NCC[C@H](N)C(=O)O

Experiments:
[1] = tested on: LPS from E. coli (O55:B5); assay: Isothermal titration calorimetry (ITC), LPS binding; conditions: compound (1 mM) into LPS (20 µM), 20 mM HEPES pH 7, 37 °C, mean and SD of three experiments; for ΔG, fitted parameter for single site binding / ΔH, fitted parameter for single site binding / Kd: one-site model; for Kd: read-out: KD, fitted parameter for single site binding
Procedure: Stock solutions of LPS (10 mg/mL, 0.5 mM) were prepared in 20 mM HEPES at pH 7 by suspension, sonication, and temperature cycling between 4 and 60 °C and stored overnight prior to use. LPS from E. coli (O55:B5) was used. Lipopeptide solutions (1 mM in 20 mM HEPES, pH 7) were titrated into a suspension of LPS (0.020 mM) in the same buffer. Control titrations included the titration of peptide into buffer and buffer into the LPS suspension to determine the corresponding heat of dilution. All binding experiments were performed using a MicroCal PEAQ-ITC Automated microcalorimeter (Malvern Panalytical Ltd., Malvern, UK). The samples were equilibrated to 37 °C prior to measurement. The titrations were conducted at 37 °C under constant stirring at 750 rpm. Each experiment consisted of an initial injection of 0.3 μL followed by 25 separate injections of 1.5 μL into the sample cell of 200 μL. The time between each injection was 180 s, and the measurements were performed with the reference power set at 5 μcal s^–1 and the feedback mode set at “low”. For all calculations performed, an estimated molecular weight of 20 kDa for LPS was applied. The calorimetric data thus obtained were analyzed using MicroCal PEAQ-ITC Analysis Software Version 1.20 (Malvern Panalytical Ltd., Malvern, UK), where the integrated heat signal is corrected for the heat of dilution of the titrant.

[2] = tested on: E. coli BW25113 (rough LPS); assay: NPN uptake assay (outer membrane disruption); type: cell-based; conditions: NPN fluorescence after 1 h at RT, 5 mM HEPES pH 7.2 + 20 mM glucose, triplicates, result in words
Procedure: (§1) Bacteria were taken from glycerol stocks and grown in TSB overnight. Cultures were diluted either 50 or 100 times in Lysogeny Broth (LB) and grown at 37 °C to an OD600 of 0.5. Test compounds were prepared in HEPES buffer (5 mM, pH 7.2 + 20 mM glucose) and serially diluted (25 μL per well) on 1/2 the area of black 96-well plates with a transparent bottom. N-Phenyl-1-naphthylamine (NPN) was dissolved in acetone (0.5 mM) and diluted to 40 μM in HEPES buffer (5 mM, pH 7.2 + 20 mM glucose). 25 μL of the NPN solution was added to each well. The bacterial suspension was spin down (1000g, 10 min), and the remaining cell pellet was resuspended in half the original volume of HEPES buffer (5 mM, pH 7.2 + 20 mM glucose). 50 μL of bacterial suspension was added to each well. NPN fluorescence was measured after 1 h of incubation at RT with λex 355 ± 20 nm and λem 420 ± 20 nm. The measured fluorescence signal was corrected for NPN fluorescence in the absence of compounds (bacteria in buffer + NPN) and presented as relative fluorescence units (RFUs).

[3] = tested on: E. coli ATCC 25922 (smooth LPS); assay: NPN uptake assay (outer membrane disruption); type: cell-based; conditions: NPN fluorescence after 1 h at RT, 5 mM HEPES pH 7.2 + 20 mM glucose, triplicates, result in words
Procedure: as §1

[4] = tested on: polymyxin-sensitive E. coli ATCC 25922; assay: microbe, parasite or virus in culture; type: cell-based
Procedure: (§2) Selected Gram-negative bacterial strains were taken from glycerol stocks and grown overnight on blood agar. A single colony was inoculated in TSB broth at 37 °C until an optical density of 0.5 at 600 nm (OD600) was reached. The bacterial suspension was diluted in freshly prepared CAMHB to 10^6 CFU/mL. Compounds were diluted along the plate, using 25 μL of CAMHB for each dilution. Antibiotic concentrations were prepared separately in a multiwell reservoir, including a control without antibiotic. Of each antibiotic stock, 25 μL was added to three columns to obtain triplicates for every condition. To each 50 μL containing well was then added 50 μL of the 10^6 CFU/mL bacterial suspension, and the plates were sealed with breathable seals. After incubation for 18 h at 37 °C while shaking, the seals were removed and the density of the bacterial suspensions was measured at 600 nm (OD600) using a Tecan Spark plate reader. The OD600 values were transformed to a 2D gradient with the negative control as the minimum and the positive control as the maximum. The FICI was calculated using the following equation: [drawing 1] with MSCant and MSCcomp indicating the optimal synergistic concentration of antibiotic and compound and MICant and MICcomp, the corresponding MICs of the individual compounds. An FICI ≤ 0.5 indicates synergy.[48]

[5] = tested on: polymyxin-resistant (mcr-1 positive) E. coli; assay: microbe, parasite or virus in culture; type: cell-based; conditions: for FICI: combination with rifampicin, CAMHB, 18 h, 37 °C, OD600, FICI ≤ 0.5 indicates synergy
Procedure: as §2

[6] = tested on: E. coli JW3594 (ΔwaaD); type: cell-based; conditions: truncated LPS, CLSI microbroth dilution, CAMHB, 18 h, 37 °C, triplicate
Procedure: (§3) MICs of compounds were determined following CLSI guidelines using the microbroth dilution method in polypropylene plates. Selected Gram-negative bacterial strains (see Table S2 for strain sources) were taken from glycerol stocks and grown overnight on blood agar. Individual colonies were selected and grown in Tryptic Soy Broth (TSB) to an OD600 of 0.5. Compounds were diluted in Mueller Hinton Broth (MHB) supplemented with Mg^2+ and Ca^2+ at final concentrations of 12 and 20 mg/L, respectively (CAMHB). 50 μL was used for each well, and compounds were assessed in triplicates. Bacterial culture was diluted in CAMHB to 10^6 CFU/mL, yielding 5 × 10^5 CFU/mL upon addition of 50 μL of culture to 50 μL of compound solution. Positive and negative (sterility) controls were present on each plate. Plates were sealed with a semipermeable membrane and incubated for 22 h (A. baumannii) or 18 h (other strains) under shaking at 37 °C.

[7] = tested on: K. pneumoniae ATCC 13883; type: cell-based
Procedure: as §3

[8] = tested on: P. aeruginosa 2018-007; type: cell-based
Procedure: as §3

[9] = tested on: E. coli mcr-1; type: cell-based; conditions: CLSI microbroth dilution, CAMHB, 18 h, 37 °C, triplicate
Procedure: as §3

[10] = tested on: E. coli BW25113; type: cell-based
Procedure: as §3

[11] = tested on: P. aeruginosa ATCC 10145; type: cell-based
Procedure: as §3

[12] = tested on: P. aeruginosa NRZ03961; type: cell-based
Procedure: as §3

[13] = tested on: A. baumannii ATCC 19606; type: cell-based
Procedure: as §3

[14] = tested on: E. coli ATCC 25922; type: cell-based
Procedure: as §3

[15] = tested on: P. aeruginosa ATCC 27853; type: cell-based
Procedure: as §3

[16] = tested on: E. coli JW3596 (ΔwaaC); type: cell-based; conditions: truncated LPS, CLSI microbroth dilution, CAMHB, 18 h, 37 °C, triplicate
Procedure: as §3

[17] = tested on: polymyxin-resistant, mcr-1 positive E. coli; assay: NPN uptake assay (outer membrane disruption); type: cell-based; conditions: E. coli mcr-1 positive; NPN fluorescence after 1 h at RT, highest concentration tested 32 μg/mL, triplicates; result in words
Procedure: as §1

[18] = E. coli ATCC 25922, checkerboard, substance alone

Row | Molecule | ΔΔH, maximum enthalpy observed after subtraction of dilution control [1] | ΔG, fitted parameter for single site binding [1] | ΔH, fitted parameter for single site binding [1] | Kd [1] | OM disruption (NPN uptake) [2] | OM disruption (NPN uptake) [3] | MIC alone ([4]; ATCC 25922, 18 h) | FICI ([5]; E. coli mcr-1, checkerboard) | MIC [6] | MIC [9] | MIC [16] | MIC alone [4, 18] | other results
1 | CC(C)C[C@@H]1NC(=O)[C@@H](Cc2ccccc2)NC(=O)[C@H](CCN)NC(=O)[C@@H](NC(=O)[C@H](CCN)NC(=O)[C@@H](N)[C@@H](C)O)CCNC(=O)[C@H]([C@@H](C)O)NC(=O)[C@H](CCN)NC(=O)[C@H](CCN)NC1=O [PMBN, polymyxin B nonapeptide, reference compound] (H-T[Dab][Dab][Dab][dF]L[Dab][Dab]T; lactam 3-C (inferred); N-terminus assumed) | -7.20 ± 0.19 kcal/mol | -7.24 ± 0.03 kcal/mol | -8.4 ± 0.25 kcal/mol | 8 ± 0.4 µM | potent OM disruption | potent OM disruption | ≥ 256 µg/mL | ≤ 0.14 |  |  |  |  | 
2 | CCCCCCC(=O)N[C@@H](CCN)C(=O)N[C@H](C(=O)N[C@@H](CCN)C(=O)N[C@H]1CCNC(=O)[C@H]([C@@H](C)O)NC(=O)[C@H](CCN)NC(=O)[C@H](CCN)NC(=O)[C@H](CC(C)C)NC(=O)[C@@H](Cc2ccccc2)NC(=O)[C@H](CCN)NC1=O)[C@@H](C)O [PmxB4, polymyxin B4] (Heptanoyl-[Dab]T[Dab][Dab][Dab][dF]L[Dab][Dab]T; lactam 4-C) | -7.86 ± 0.10 kcal/mol |  |  |  | potent OM disruption | potent OM disruption | 1 µg/mL | 0.16 and 0.163 | 0.06 µg/mL (≈ 0.051 µM) | 4 µg/mL (≈ 3.4 µM) | 0.06 µg/mL (≈ 0.051 µM) | 2 µg/mL | MIC ([7]; ATCC 13883, 18 h): 0.125 µg/mL (≈ 0.106 µM); MIC ([8]; 2018-007, 18 h): 0.5 µg/mL (≈ 0.425 µM); MIC ([10]; BW25113, 18 h): 0.5 µg/mL (≈ 0.425 µM); MIC ([11]; ATCC 10145, 18 h): 0.25 µg/mL (≈ 0.213 µM); MIC ([12]; NRZ03961, 18 h): 0.25 µg/mL (≈ 0.213 µM); MIC ([13]; ATCC 19606, 22 h): 0.5 µg/mL (≈ 0.425 µM); MIC ([14]; ATCC 25922, 18 h): 0.25 µg/mL (≈ 0.213 µM); MIC ([15]; ATCC 27853, 18 h): 0.25 µg/mL (≈ 0.213 µM); OM disruption (NPN uptake) [17]: most effective OM disruption; MIC alone ([5]; E. coli mcr-1, checkerboard, substance alone): 8 µg/mL
3 | CO[C@H]1/C=C/O[C@@]2(C)Oc3c(C)c(O)c4c(O)c(c(/C=N/N5CCN(C)CC5)c(O)c4c3C2=O)NC(=O)/C(C)=C\C=C\[C@H](C)[C@H](O)[C@@H](C)[C@@H](O)[C@@H](C)[C@H](OC(C)=O)[C@@H]1C [Rifampicin, rifampicin] |  |  |  |  |  |  |  |  |  |  |  | 8 µg/mL | MIC in combination (rifampicin) ([4]; E. coli ATCC 25922, rifampicin in combination with PMBN (2 µg/mL)): 0.1 µg/mL; MIC in combination (rifampicin) ([4]; E. coli ATCC 25922, rifampicin in combination with PmxB4 (1 µg/mL)): 0.5 µg/mL; MIC in combination (rifampicin) ([4]; E. coli ATCC 25922, rifampicin in combination with ent-PMBN (32 µg/mL)): 2 µg/mL; MIC in combination (rifampicin) ([4]; E. coli ATCC 25922, rifampicin in combination with ent-PmxB4 (8 µg/mL)): 0.1 µg/mL; MIC ([4]; Escherichia coli, ATCC25922, E. coli ATCC 25922, checkerboard, substance alone): 8 µg/mL; MIC in combination (rifampicin) ([5]; E. coli mcr-1, rifampicin in combination with PMBN (4 µg/mL)): 1 µg/mL; MIC in combination (rifampicin) ([5]; E. coli mcr-1, rifampicin in combination with PmxB4 (1 µg/mL)): 0.3 µg/mL; MIC in combination (rifampicin) ([5]; E. coli mcr-1, rifampicin in combination with ent-PMBN (32 µg/mL)): 2 µg/mL; MIC in combination (rifampicin) ([5]; E. coli mcr-1, rifampicin in combination with ent-PmxB4 (8 µg/mL)): 1 µg/mL; MIC ([5]; Escherichia coli, read-out: MIC alone): 8 µg/mL
4 | CC(C)C[C@H]1NC(=O)[C@H](Cc2ccccc2)NC(=O)[C@@H](CCN)NC(=O)[C@H](NC(=O)[C@@H](CCN)NC(=O)[C@H](N)[C@H](C)O)CCNC(=O)[C@@H]([C@H](C)O)NC(=O)[C@@H](CCN)NC(=O)[C@@H](CCN)NC1=O [ent-PMBN] (H-[dT][dDab][dDab][dDab]F[dL][dDab][dDab][dT]; lactam 3-C) | -4.91 ± 0.03 kcal/mol | -7.69 ± 0.06 kcal/mol | -5.2 ± 0.03 kcal/mol | 3.9 ± 0.4 µM | higher degree of OM perturbation | weak OM disruption | ≥ 256 µg/mL |  |  |  |  |  | 
5 | Polymyxin B sulfate [PmxB (commercial), reference compound] |  |  |  |  |  |  |  |  | 0.06 µg/mL | 4 µg/mL | 0.06 µg/mL |  | MIC ([7]; K. pneumoniae ATCC 13883, CLSI microbroth dilution, CAMHB, 18 h, 37 °C, triplicate): 0.25 µg/mL; MIC ([8]; P. aeruginosa 2018-007, CLSI microbroth dilution, CAMHB, 18 h, 37 °C, triplicate): 2 µg/mL; MIC ([10]; E. coli BW25113, CLSI microbroth dilution, CAMHB, 18 h, 37 °C, triplicate): 1 µg/mL; MIC ([11]; P. aeruginosa ATCC 10145, CLSI microbroth dilution, CAMHB, 18 h, 37 °C, triplicate): 1 µg/mL; MIC ([12]; P. aeruginosa NRZ03961, CLSI microbroth dilution, CAMHB, 18 h, 37 °C, triplicate): 1 µg/mL; MIC ([13]; A. baumannii ATCC 19606, CLSI microbroth dilution, CAMHB, 22 h, 37 °C, triplicate): 0.25 µg/mL; MIC ([14]; E. coli ATCC 25922, CLSI microbroth dilution, CAMHB, 18 h, 37 °C, triplicate): 1 µg/mL; MIC ([15]; P. aeruginosa ATCC 27853, CLSI microbroth dilution, CAMHB, 18 h, 37 °C, triplicate): 1 µg/mL
